# Test results reported in PMC7540527, “Synthesis of Antiviral Perfluoroalkyl Derivatives of Teicoplanin and Vancomycin” (Chemmedchem, 2020).
# Where a name gives a salt, the structure may show the parent alone. Read-outs that look alike come from different tables or passages of the source.
# Assays:
# vaccinia virus = test: microbe, parasite or virus in culture; type: cell-based; details: Orthopoxvirus vaccinia, HEL, read-out: Antiviral EC50 Vaccinia
# [1] = tested on: thymidine-kinase deficient (TK-) mutant of HSV-1; test: microbe, parasite or virus in culture; type: cell-based, herpes simplex virus type 1; details: Human alphaherpesvirus 1, HEL, read-out: Antiviral EC50 HSV‐1/TK−
# [2] = tested on: herpes simplex virus type 1 (HSV-1); test: microbe, parasite or virus in culture; type: cell-based; details: Human alphaherpesvirus 1, HEL, read-out: Antiviral EC50 HSV‐1
# [3] = tested on: herpes simplex virus type 2 (HSV-2); test: microbe, parasite or virus in culture; type: cell-based; details: Human alphaherpesvirus 2, HEL, read-out: Antiviral EC50 HSV‐2
# [4] = tested on: human adenovirus type 2 (AdV-2); test: microbe, parasite or virus in culture; type: cell-based; details: Human mastadenovirus C, HEL, read-out: Antiviral EC50 AdV‐2
# in vitro [5] = details: human
# in vitro [6] = details: human; remark: listed apart in the source
# Coxsackie virus B4 [7] = test: microbe, parasite or virus in culture; type: cell-based; details: Enterovirus B, B4, HeLa, read-out: Antiviral EC50 Coxsackie virus B4, Visual CPE score
# [8] = tested on: Respiratory syncytial virus; test: microbe, parasite or virus in culture; type: cell-based; details: human respiratory syncytial virus, HeLa, read-out: Antiviral EC50 Respiratory syncytial virus, Visual CPE score
# [9] = tested on: Vesicular stomatitis virus; test: microbe, parasite or virus in culture; type: cell-based; details: HeLa, read-out: Antiviral EC50 Vesicular stomatitis virus, Visual CPE score
# Sindbis virus = test: microbe, parasite or virus in culture; type: cell-based; details: Vero
# [10] = tested on: Zika virus (strain MR766); test: microbe, parasite or virus in culture; type: cell-based; details: Vero
# Reovirus-1 = test: organism not typed; type: cell-based; details: Vero
# Punta Toro virus = test: microbe, parasite or virus in culture; type: cell-based; details: Vero
# Coxsackie virus B4 [11] = test: microbe, parasite or virus in culture; type: cell-based; details: Enterovirus B, B4, Vero
# Vero cells = details: African green monkey
# Yellow Fever virus (17D) = test: microbe, parasite or virus in culture; type: cell-based; details: Vero
# in vitro [12] = details: African green monkey
# in vitro [13] = details: dog
# [14] = tested on: influenza A/H1N1 A/Ned/378/05; test: microbe, parasite or virus in culture; type: cell-based, influenza A virus; details: Influenza A virus, H1N1, MDCK
# [15] = tested on: influenza A/H3N2 A/Victoria/361/11; test: microbe, parasite or virus in culture; type: cell-based, influenza A virus; details: Influenza A virus, H3N2, MDCK
# MDCK cells = details: dog
# [16] = tested on: influenza B virus B/Ned/537/05; test: CPE reduction assay for influenza virus in MDCK cells, influenza B; type: cell-based; details: Influenza B virus, MDCK
# Description: The CPE reduction assay for influenza virus was described in full detail in previous publications.41 The virus strains were: A/PR/8/34 (A/H1 N1); A/Virginia/ATCC3/2009 (A/H1 N1pdm); A/HK/7/87 (A/H3 N2); B/Ned/537/05; and B/HK/5/72. On day 0, Madin‐Darby canine kidney (MDCK) cells in 96‐well plates were infected with influenza virus at a multiplicity of infection (MOI) of 0.0004 plaque forming units (PFU) per cell. After three days incubation at 35 °C, virus‐induced CPE and compound cytotoxicity were scored by microscopy, after which the data were confirmed by formazan‐based MTS cell viability assay (CellTiter 96® AQueous One Solution Cell Proliferation Assay from Promega). The antiviral effect was expressed as the compound concentration producing 50 % inhibition of the virus‐induced CPE (EC50). Compound cytotoxicity was expressed as the compound concentration causing minimal changes in cell morphology (MCC), and 50 % cytotoxic concentration (CC50) based on MTS assay.42
smiles,measurement,setting,value
Nc1ccn(C[C@@H](CO)OCP(=O)(O)O)c(=O)n1 [cidofovir],EC50,vaccinia virus,10 µM
same,EC50,[1],4.7 µM
same,EC50,[2],2.4 µM
same,EC50,[3],1 µM
same,EC50,[4],6.4 µM
same,CC50,in vitro [5],> 250 µM
NC(=O)c1ncn([C@@H]2O[C@H](CO)[C@@H](O)[C@H]2O)n1 [Ribavirin],CC50,in vitro [6],> 250 µM
same,EC50,Coxsackie virus B4 [7],126 µM
same,EC50,[8],5 µM
same,EC50,[9],87 µM
Nc1nc2c(ncn2COCCO)c(=O)[nH]1 [acyclovir],EC50,vaccinia virus,> 250 µM
same,EC50,[2],2.4 µM
same,EC50,[3],0.05 µM
same,CC50,in vitro [5],> 250 µM
COc1c(C)c2c(c(O)c1C/C=C(\C)CCC(=O)O)C(=O)OC2 [Mycophenolic acid],EC50,"Sindbis virus; read-out: Antiviral EC50 Sindbis virus, MTS",4 µM
same,EC50,"Sindbis virus; read-out: Antiviral EC50 Sindbis virus, Visual CPE score",5.7 µM
same,EC50,"[10]; read-out: Antiviral EC50 Zika virus, MTS",1.5 µM
same,EC50,"[10]; read-out: Antiviral EC50 Zika virus, Visual CPE score",0.8 µM
same,EC50,"Reovirus-1; read-out: Antiviral EC50 Reovirus-1, MTS",4 µM
same,EC50,"Reovirus-1; read-out: Antiviral EC50 Reovirus-1, Visual CPE score",3.3 µM
same,EC50,"Punta Toro virus; read-out: Antiviral EC50 Punta Toro virus, MTS",10.6 µM
same,EC50,"Punta Toro virus; read-out: Antiviral EC50 Punta Toro virus, Visual CPE score",> 100 µM
same,EC50,"Coxsackie virus B4 [11]; read-out: Antiviral EC50 Coxsackie virus B4, MTS",> 100 µM
same,EC50,"Coxsackie virus B4 [11]; read-out: Antiviral EC50 Coxsackie virus B4, Visual CPE score",> 100 µM
same,Cytotoxicity MCC,Vero cells,> 100
same,EC50,"Yellow Fever virus (17D); read-out: Antiviral EC50 Yellow Fever virus, MTS",1.4 µM
same,EC50,"Yellow Fever virus (17D); read-out: Antiviral EC50 Yellow Fever virus, Visual CPE score",> 100 µM
same,CC50,in vitro [12],> 100 µM
Cc1cn([C@H]2C[C@H](F)[C@@H](CO)O2)c(=O)[nH]c1=O [alovudine],EC50,[4],5.9 µM
same,CC50,in vitro [5],> 250 µM
CN[C@H](CC(C)C)C(=O)N[C@H]1C(=O)N[C@@H](CC(N)=O)C(=O)N[C@H]2C(=O)N[C@H]3C(=O)N[C@H](C(=O)N[C@H](C(=O)O)c4cc(O)cc(O)c4-c4cc3ccc4O)[C@H](O)c3ccc(c(Cl)c3)Oc3cc2cc(c3O[C@@H]2O[C@H](CO)[C@@H](O)[C@H](O)[C@H]2O[C@H]2C[C@](C)(N)[C@H](O)[C@H](C)O2)Oc2ccc(cc2Cl)[C@H]1O [vancomycin⋅HCl],CC50,in vitro [13],> 100 µM
same,EC50,[14]; read-out: Antiviral EC50 A/H1N1 CPE,> 100 µM
same,EC50,[14]; read-out: Antiviral EC50 A/H1N1 MTS,> 100 µM
same,EC50,[15]; read-out: Antiviral EC50 A/H3N2 CPE,> 100 µM
same,EC50,[15]; read-out: Antiviral EC50 A/H3N2 MTS,> 100 µM
same,Cytotoxicity MCC (minimum cytotoxic concentration),MDCK cells,>100 µM
same,EC50,[16]; read-out: Antiviral EC50 Influenza B CPE,> 100 µM
same,EC50,[16]; read-out: Antiviral EC50 Influenza B MTS,> 100 µM
